Reference: patent publication US9844546B2, “Antibody against human HIF hydroxylase” (OXFORD UNIVERSITY INNOVATION LIMITED, priority 2001, dated 2017)

Assays:
HIF-α/pVHL interaction = assay: Interaction of HIF-1α and pVHL.HA reticulocyte IVTTs, anti-HA co-immunoprecipitation; format: biochemical, human; conditions: 100 μM added to the HIF-1α IVTT
Method: ^35S-Methionine labelled […] subunits and pVHL.HA were produced separately by IVTT (in vitro transcription and translation) in reticulocyte lysates. IVTTs were performed under different conditions, mixed, and assayed for interaction by anti-HA co-immunoprecipitation. These in vitro assays allowed analysis of the HIFα/pVHL interaction using the recombinant proteins.
Labelled HIF-1α and pVHL.HA were generated separately in reticulocyte lysates (IVTT), in the presence or absence of Co (II), desferrioxamine, or Fe(II). Lysates were mixed in various combinations, and interactions assayed by anti-HA immunoprecipitation.
• 1. G. L. Semenza, Genes Dev 14, 1983-91. (2000). • 2. N. V. Iyer, et al., Genes Dev. 12, 149-162 (1997). • 3. E. Maltepe, J. V. Schmidt, D. Baunoch, C. A. Bradfield, M. C. Simon, Nature 386, 403-407 (1997). • 4. G. L. Wang, B.-H. Jiang, E. A. Rue, G. L. Semenza, Proc. Natl. Acad. Sci. USA 92, 5510-5514 (1995). • 5. S. Salceda, J. Caro, J. Biol. Chem. 272, 22642-22647 (1997). • 6. L. E. Huang, J. Gu, M. Schau, H. F. Bunn, Proc. Natl. Acad. Sci. USA 95, 7987-7992 (1998). • 7. M. S. Wiesener, et al., Blood 92, 2260-2268 (1998). • 8. P. H. Maxwell, et al., Nature 399, 271-275 (1999). • 9. K. Iwai, et al., Proc. Natl. Acad. Sci. USA 96, 12436-12441 (1999). • 10. J. Lisztwan, G. Imbert, C. Wirbelauer, M. Gstaiger, W. Krek, Genes Dev 13, 1822-33 (1999). • 11. M. E. Cockman, et al., J Biol Chem (2000). • 12. M. Ohh, et al., Nat Cell Biol 2, 423-7. (2000). • 13. T. Kamura, et al., Proc Natl Acad Sci USA 97, 10430-5. (2000). • 14. K. Tanimoto, Y. Makino, T. Pereira, L. Poellinger, Embo J 19, 4298-309. (2000). • 15. M. A. Goldberg, S. P. Dunning, H. F. Bunn, Science 242, 1412-1415 (1988). • 16. G. L. Wang, G. L. Semenza, Blood 82, 3610-3615 (1993). • 17. G. L. Semenza, Cell 98, 281-284 (1999). • 18. Hypoxia (<0.1% oxygen) was obtained in a workstation with O2, CO2 and temperature control (Ruskinn Technologies, Leeds, UK). For hypoxic harvest, buffers were preincubated in the chamber overnight. […]

[1] = test system: HIF-α prolyl-hydroxylase (HIF-PH) of cell extract; assay: Modifying activity (HIF-PH) of cell extract on HIF substrate (Gal/HIF-1α549-582/VP16 or 19:WT), pVHL capture assay; format: biochemical, mammalian; conditions: titration, cell extract
Method: The unlabelled HIF-1α substrate was immunopurified on beads, washed, and aliquots incubated under different test conditions in buffer or cell extract. After further washing, the beads were assayed for ability to interact with 35-S labelled pVHL IVTT (21) which was then visualised by fluorography.
The capture of labelled pVHL by different HIF substrates was monitored after exposure to various test conditions.
We went on to test a series of 2-oxoglutarate analogues which act as competitive inhibitors of this class of enzyme (29) for ability to inhibit HIF-PH as assessed by the ability of cell extracts to modify either HIF polypeptide (19:WT) or a HIF fusion protein (Gal/HIF-1α549-582/VP16) so as to promote pVHL capture. […] In one such experiment the effect of N-oxalylglycine on pVHL capture by a biotinylated HIF polypeptides as substrate was monitored. The WT:19 and 19:Pro564Hyp polypeptides described above were used as substrates. […] The effect of dimethyl-oxalyglycine on HIF-1α expression was also studied. HIF-1α immunoblot analysis of extracts of Hep3B and U2OS cells exposed to dimethyl-oxalylgylcine (0, 0.1 or 1.0 mM) for 6 hours was carried out. […]

HIF-1α/pVHL interaction = molecular target: T1, HIF-1α/pVHL interaction (Homo sapiens, UniProt P40337); assay: Polypeptide blocking assay of HIF-1α and pVHL.HA IVTT mixture, anti-HA immunoprecipitation; format: binding; conditions: cell extract supplemented with Fe(II)
T1 construct: made in house; host or cells: TNT rabbit reticulocyte lysate (Promega), in vitro transcription/translation
Method: Further studies were performed using synthetic polypeptides as inhibitors of the HIF-1α/pVHL interaction (23). […] Results for a series of polypeptides derived from this domain are summarized in FIG. 1B and implicate a similar minimal interaction domain. […] This polypeptide comprises HIF-1α polypeptide residues 556 to 574 and its ability to block binding following exposure to a variety of direct oxidation conditions was assessed.
We synthesized a polypeptide (HIF-1α residues 556-574), containing a trans-4-hydroxy-S-proline residue at position 564 (19:Pro564Hyp), since the trans-4-hydroxylation is the commonest enzymatic proline oxidation (25). A polypeptide blocking assay was carried out using the 19:Pro564Hyp modified polypeptide and, as a control, the unmodified polypeptide without the trans-4-hydroxylation (19:WT). The 19:WT polypeptide was either incubated with cell extract before the binding assay or was untreated. The 19:Pro564Hyp polypeptide was added to a mixture of HIF-1α and pVHL-HA IVTTs at a concentration of 1, 0.25, 0.05 or 0.01 μM and the cell extract treated or untreated 19:WT polypeptide at a concentration of 0.5 μM. Interaction of HIF-1α with pVHL was then assayed by anti-HA immunoprecipitation. […] A pVHL capture assay was then carried out using biotinylated synthetic polypeptides. The same polypeptides, 19:Pro564Hyp and 19:WT were assessed for the ability to capture wild type or mutant (Pro86His) pVHL. […] In both cases capture was specific for wild type, as opposed to mutant, pVHL.
• 1. G. L. Semenza, Genes Dev 14, 1983-91. (2000). • 2. N. V. Iyer, et al., Genes Dev. 12, 149-162 (1997). • 3. E. Maltepe, J. V. Schmidt, D. Baunoch, C. A. Bradfield, M. C. Simon, Nature 386, 403-407 (1997). • 4. G. L. Wang, B.-H. Jiang, E. A. Rue, G. L. Semenza, Proc. Natl. Acad. Sci. USA 92, 5510-5514 (1995). • 5. S. Salceda, J. Caro, J. Biol. Chem. 272, 22642-22647 (1997). • 6. L. E. Huang, J. Gu, M. Schau, H. F. Bunn, Proc. Natl. Acad. Sci. USA 95, 7987-7992 (1998). • 7. M. S. Wiesener, et al., Blood 92, 2260-2268 (1998). • 8. P. H. Maxwell, et al., Nature 399, 271-275 (1999). • 9. K. Iwai, et al., Proc. Natl. Acad. Sci. USA 96, 12436-12441 (1999). • 10. J. Lisztwan, G. Imbert, C. Wirbelauer, M. Gstaiger, W. Krek, Genes Dev 13, 1822-33 (1999). • 11. M. E. Cockman, et al., J Biol Chem (2000). • 12. M. Ohh, et al., Nat Cell Biol 2, 423-7. (2000). • 13. T. Kamura, et al., Proc Natl Acad Sci USA 97, 10430-5. (2000). • 14. K. Tanimoto, Y. Makino, T. Pereira, L. Poellinger, Embo J 19, 4298-309. (2000). • 15. M. A. Goldberg, S. P. Dunning, H. F. Bunn, Science 242, 1412-1415 (1988). • 16. G. L. Wang, G. L. Semenza, Blood 82, 3610-3615 (1993). • 17. G. L. Semenza, Cell 98, 281-284 (1999). • 18. Hypoxia (<0.1% oxygen) was obtained in a workstation with O2, CO2 and temperature control (Ruskinn Technologies, Leeds, UK). For hypoxic harvest, buffers were preincubated in the chamber overnight. RCC4-VHL.HA, labelling conditions and co-immunoprecipitation assays have been described previously (11); in the current study 12.5 μM MG132 was used for proteasomal inhibition. For standard harvest, the cells were removed from the chamber after hypoxic exposure, prior to cell lysis. Co-immunoprecipitation assays on all lysates were performed at 4° C. under ambient oxygen conditions. […] When programming in hypoxia, reaction mix was preincubated in the workstation for 10 minutes before addition of the DNA template. […]

[2] = test system: cytoplasmic extract-dependent modification of the 5′ VHL E3 target site; assay: Peptide competition of cytoplasmic extract-dependent modification of GAL-HIF-1α 344-553, in vitro VHL E3 ubiquitylation; format: biochemical, human; conditions: 12.5 μM peptide, RCC4 cytoplasmic extract
Method: The E1 activating enzyme used in ubiquitylation assays was either obtained from Affiniti Research (Exeter, UK) or purified from BL21 (DE3) E. coli transfected with plasmid expressing His6-tagged mouse E1. His6-E1 was purified by Ni^2+-agarose affinity chromatography. After dialysis against phosphate buffered saline, glycerol was added to 10% (vol/vol) and 25 ng/μl aliquots stored at −80° C. Human CDC34 recombinant E2 enzyme was from Affiniti Research (Exeter, UK). VHL E3 was obtained by anti-HA immunoprecipitation from stably transfected 7860-VHLHA cell lysates (Iliopoulos et al). GAL-HIF-1α substrate was prepared by anti-GAL immunoprecipitation from [^35S] methionine-labeled TnT rabbit reticulocyte (Promega) translates. Each 40 μl ubiquitylation reaction consisted of 4 μl of 5 mg/ml ubiquitin, 4 μl of 10×ATP regenerating system (20 mM Tris pH7.5, 10 mM ATP, 10 mM magnesium acetate, 300 mM creatine phosphate, 0.5 mg/ml creatine phosphokinase), 2 μl, E1, 3 μl E2, 6 μl VHL E3 immunopurified on protein G sepharose, 6 μl GAL-HIF-1α substrate immunopurified on agarose beads. Reactions were incubated at 30° C. for 2 h with occasional mixing, stopped by the addition of SDS sample buffer and analysed by SDS-PAGE and autoradiography. Cytoplasmic extract-based ubiquitylation assays have been previously described (Cockman).
It has been shown above that the 3′ VHL E3 target site responds to oxygen level via hydroxylation at proline residue 564. This praline residue forms part of a potential motif conserved between the 5′ and 3′ target sites. Mutation of the corresponding proline residue (P402A) in the 5′ target site also results in functional inactivation. It was possible therefore that proline residue 402 was also a target for regulatory hydroxylation, To test this we asked whether polypeptides corresponding to the 3′ VHL E3 target site could interfere with the cytoplasmic extract-dependent modification of the 5′ VHL E3 target site. […]

T1 sequence (P40337 whole entry): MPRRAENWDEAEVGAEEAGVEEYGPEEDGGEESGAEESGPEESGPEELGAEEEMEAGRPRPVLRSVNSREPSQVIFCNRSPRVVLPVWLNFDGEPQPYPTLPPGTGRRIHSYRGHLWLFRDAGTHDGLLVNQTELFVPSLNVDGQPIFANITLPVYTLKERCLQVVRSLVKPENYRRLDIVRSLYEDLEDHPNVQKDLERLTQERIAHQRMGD

| Compound | capture of HIF-1α by pVHL.HA (HIF-α/pVHL interaction) | Fe(II) supplementation giving full activation of modifying activity [1] [µM] | blocking of HIF-1α/pVHL interaction by polypeptide after exposure to cell extract (HIF-1α/pVHL interaction) | competition of cytoplasmic extract effect on VHL-dependent ubiquitylation of GAL 344-553 [2] |
| --- | --- | --- | --- | --- |
| [Cl][Fe][Cl] [Fe(II), ferrous chloride, reference compound] | greatly enhanced capture | 5 |  |  |
| Pro564Gly: HIF-1α 556-574 polypeptide where the critical proline is mutated to glycine (DLDLEMLAGYIPMDDDFQL; UniProt Q16665 556-574, looked up, fragment P564G) |  |  | did not block | no effect |
